{
  "source": "patent US20040161794A1",
  "about": "(The General Hospital Corporation, priority 2002, published 2004)",
  "key": {"[1]": {"system": "rat hypothalamic tissue", "conditions": "injected intravenously or included in the in vitro incubation of rat hypothalamic tissue; cited from earlier work"}, "[2]": {"target": "T1, Na^+ pump (Homo sapiens, UniProt P05023)", "T1 construct": "measuring active ^86Rb^+(K^+ analogue) transport into human erythrocytes; endogenous in cells; host or cells: human erythrocytes", "assay": "Inhibition of Na+ pump activity (active Rb+ uptake) in human erythrocytes", "type": "cell-based", "conditions": "1 mM, standard", "experimental": "After purifying the conditioned medium by reverse-phase column chromatography (Sep-Pak, Waters), the resulting sample was assayed using the ^86Rb uptake assay to determine a change in inhibition as previously described in Carilli et al., J. Biol. Chem., 260:1027-1031 (1985).\nPC12 cells are studied for the presence of the genes of interest, then the release of inhibitor from these cells is confirmed using the method of Komiyama (Komiyama et al., J. Hypertens., 19:229-236 (2001)). Collected supernatants are acidified to dissociate OLC from putative carrier proteins, and purified using Sep-Pak C18 cartridges eluted with acetonitrile."}, "[3]": {"system": "cultured rat myocytes", "conditions": "cited from earlier work"}, "[4]": {"system": "vascular rings from rat pulmonary artery and aorta", "conditions": "in vitro; cited from earlier work"}, "[5]": {"system": "PC12 cells", "conditions": "added to the culture media of PC12 cells; cited from earlier work"}},
  "data": [
    {"smiles": "CC[C@H](C)[C@@H]1NC(=O)[C@H](CCCNC(=N)N)NC(=O)[C@H](CC(=O)O)NC(=O)[C@H](CCSC)NC(=O)[C@H](CCCNC(=N)N)NC(=O)CNC(=O)CNC(=O)[C@H](Cc2ccccc2)NC(=O)[C@@H](NC(=O)[C@H](CO)NC(=O)[C@H](CO)NC(=O)[C@H](CCCNC(=N)N)NC(=O)[C@H](CCCNC(=N)N)NC(=O)[C@H](CC(C)C)NC(=O)[C@@H](N)CO)CSSC[C@@H](C(=O)N[C@@H](CC(N)=O)C(=O)N[C@@H](CO)C(=O)N[C@@H](Cc2ccccc2)C(=O)N[C@@H](CCCNC(=N)N)C(=O)N[C@@H](Cc2ccc(O)cc2)C(=O)O)NC(=O)CNC(=O)[C@H](CC(C)C)NC(=O)CNC(=O)[C@H](CO)NC(=O)[C@H](CCC(N)=O)NC(=O)[C@H](C)NC(=O)CNC1=O", "note": "[atrial natriuretic peptide]", "values": [
      {"measurement": "release of the Na+,K+-ATPase inhibitor", "setting": "[1]", "result": "decreased the release"}
    ]},
    {"smiles": "C[C@@H]1O[C@@H](O[C@H]2C[C@@H](O)[C@]3(CO)[C@H]4[C@H](O)C[C@]5(C)[C@@H](C6=CC(=O)OC6)CC[C@]5(O)[C@@H]4CC[C@]3(O)C2)[C@H](O)[C@H](O)[C@H]1O", "note": "[ouabain]", "values": [
      {"measurement": "inhibition of active Na+ transport", "setting": "[2]", "result": "Complete inhibition"},
      {"measurement": "toxicity at the same intracellular Ca++ concentration", "setting": "[3]", "result": "toxic"},
      {"measurement": "effect on isolated vascular rings", "setting": "[4]", "result": "unaffected by Oua except at toxic concentrations"}
    ]},
    {"smiles": "CC(=O)[C@H]1CC[C@H]2[C@@H]3CCC4=CC(=O)CC[C@]4(C)[C@H]3CC[C@]12C", "note": "[progesterone]", "values": [
      {"measurement": "amount of OLC release into culture supernatants", "setting": "[5]", "result": "augmented in a dose-dependent manner"}
    ]}
  ]
}
